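48-hour exposure; five concentrations; linearly interpolated endpoints. GI50 = concentration required for 50% inhibition of growth. At the TGI there is no net growth.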
Legend:
Experiment in all cases: NCI anticancer screen, dose series, 48 h
A498 renal = system: A498 renal
CAKI-1 renal = system: CAKI-1 renal
DU-145 prostate = system: DU-145 prostate
OVCAR-5 ovarian = system: OVCAR-5 ovarian
RXF 393 renal = system: RXF 393 renal
SF-295 CNS = system: SF-295 CNS
SK-MEL-2 melanoma = system: SK-MEL-2 melanoma
SK-MEL-28 melanoma = system: SK-MEL-28 melanoma
SK-MEL-5 melanoma = system: SK-MEL-5 melanoma
SK-OV-3 ovarian = system: SK-OV-3 ovarian
SN12C renal = system: SN12C renal
TK-10 renal = system: TK-10 renal
UACC-257 melanoma = system: UACC-257 melanoma
UACC-62 melanoma = system: UACC-62 melanoma
UO-31 renal = system: UO-31 renal

## N#Cc1c(-c2ccc(Cl)cc2)nc(SCc2ccc([N+](=O)[O-])cc2)nc1N1CCNCC1
A498 renal
  GI50: 1560 nM
  TGI: 2980 nM
CAKI-1 renal
  GI50: 1550 nM
  TGI: 2900 nM
DU-145 prostate
  GI50: 1730 nM
  TGI: 3110 nM
OVCAR-5 ovarian
  GI50: 1560 nM
  TGI: 2980 nM
RXF 393 renal
  GI50: 1540 nM
  TGI: 2970 nM
SF-295 CNS
  GI50: 1780 nM
  TGI: 3210 nM
SK-MEL-2 melanoma
  GI50: 1610 nM
  TGI: 3050 nM
SK-MEL-28 melanoma
  GI50: 1640 nM
  TGI: 3020 nM
SK-MEL-5 melanoma
  GI50: 1680 nM
  TGI: 3060 nM
SK-OV-3 ovarian
  GI50: 1780 nM
  TGI: 3200 nM
SN12C renal
  GI50: 1770 nM
  TGI: 3260 nM
TK-10 renal
  GI50: 1560 nM
  TGI: 2960 nM
UACC-257 melanoma
  GI50: 1620 nM
  TGI: 3060 nM
UACC-62 melanoma
  GI50: 1690 nM
  TGI: 3110 nM
UO-31 renal
  GI50: 1320 nM
  TGI: 2590 nM

Reference: PubChem BioAssay (NCI)
